System: HIVLAI
Test: Antiviral activity in MT-2 human-T-lymphoid cells exposed to HIVLAI
Type: cell-based, HIV-1
Conditions: for antiviral activity (in words): MT-2 cells exposed to HIVLAI

Cc1ccc(C(=O)N[C@@H](Cc2cc(F)cc(F)c2)[C@H](O)CN(CC(C)C)S(=O)(=O)c2ccc(N)cc2)cc1Nc1nccc(-c2cccnc2)n1 [5d, N-((2S,3R)-4-((4-amino-N-isobutylphenyl)sulfonamido)-1-(3,5-difluorophenyl)-3-hydroxybutan-2-yl)-4-methyl-3-((4-(pyridin-3-yl)pyrimidin-2-yl)amino)benzamide]
fold reduction in antiviral activity over compound 5c (MT-2 cells, HIVLAI, compared with 5c): 3 fold

COc1ccc(S(=O)(=O)N(CC(C)C)C[C@@H](O)[C@H](Cc2ccccc2)NC(=O)c2cccc(Nc3nc(-c4cccnc4)cs3)c2C)cc1 [5f, N-((2S,3R)-3-hydroxy-4-((N-isobutyl-4-methoxyphenyl)sulfonamido)-1-phenylbutan-2-yl)-2-methyl-3-((4-(pyridin-3-yl)thiazol-2-yl)amino)benzamide]
antiviral activity (in words): did not exhibit any appreciable antiviral activity

COc1ccc(S(=O)(=O)N(CC(C)C)C[C@@H](O)[C@H](Cc2ccccc2)NC(=O)c2ccc(C)c(Nc3nc(C)cs3)c2)cc1 [5j, N-((2S,3R)-3-hydroxy-4-((N-isobutyl-4-methoxyphenyl)sulfonamido)-1-phenylbutan-2-yl)-4-methyl-3-((4-methylthiazol-2-yl)amino)benzamide]
antiviral activity (in words): did not show any appreciable antiviral activity

Reference: paper PMC10759558 (European journal of medicinal chemistry, 2023)
